{
  "source": "paper PMC7823355",
  "about": "“Pretreatment Effect of Inflammatory Stimuli and Characteristics of Tryptophan Transport on Brain Capillary Endothelial (TR-BBB) and Motor Neuron Like (NSC-34) Cell Lines” (Biomedicines, 2020)",
  "assay_type_in_all_cases": "cell-based",
  "key": {"[1]": {"molecular_target": "T1, LAT1 (L-type amino acid transporter 1) (Mus musculus, UniProt Q9Z127)", "T1 construct": "gene Slc7a5; endogenous LAT1 in NSC-34 (hSOD1^WT) cells", "T1 sequence (Q9Z127 whole entry)": "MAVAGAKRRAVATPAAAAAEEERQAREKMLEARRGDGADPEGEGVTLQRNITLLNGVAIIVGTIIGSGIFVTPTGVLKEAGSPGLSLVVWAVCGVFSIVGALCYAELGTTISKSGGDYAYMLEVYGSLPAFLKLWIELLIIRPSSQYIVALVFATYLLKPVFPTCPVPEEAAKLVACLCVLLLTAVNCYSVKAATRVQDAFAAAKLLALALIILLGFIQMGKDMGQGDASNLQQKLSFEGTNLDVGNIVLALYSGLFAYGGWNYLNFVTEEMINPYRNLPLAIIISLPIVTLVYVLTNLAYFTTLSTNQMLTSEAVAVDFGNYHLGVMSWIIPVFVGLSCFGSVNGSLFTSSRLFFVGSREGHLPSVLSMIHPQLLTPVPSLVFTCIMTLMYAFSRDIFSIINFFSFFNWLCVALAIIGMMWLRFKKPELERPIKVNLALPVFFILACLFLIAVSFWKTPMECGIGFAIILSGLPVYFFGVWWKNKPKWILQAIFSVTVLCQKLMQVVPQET", "test": "radiolabelled uptake kinetics (Km) in NSC-34 cells, with LAT1 siRNA knockdown", "description": "radiolabelled uptake kinetics (Km) in NSC-34 cells, with LAT1 siRNA knockdown on LAT1 (L-type amino acid transporter 1) | LAT1 mRNA expression and tryptophan uptake results indicated significant depletion effect in LAT1 siRNA-transfected WT and MT cell lines"}, "[2]": {"molecular_target": "T2, LAT1 (L-type amino acid transporter 1) (Rattus norvegicus, UniProt Q63016)", "T2 construct": "gene Slc7a5; endogenous LAT1 in TR-BBB cells", "T2 sequence (Q63016 whole entry)": "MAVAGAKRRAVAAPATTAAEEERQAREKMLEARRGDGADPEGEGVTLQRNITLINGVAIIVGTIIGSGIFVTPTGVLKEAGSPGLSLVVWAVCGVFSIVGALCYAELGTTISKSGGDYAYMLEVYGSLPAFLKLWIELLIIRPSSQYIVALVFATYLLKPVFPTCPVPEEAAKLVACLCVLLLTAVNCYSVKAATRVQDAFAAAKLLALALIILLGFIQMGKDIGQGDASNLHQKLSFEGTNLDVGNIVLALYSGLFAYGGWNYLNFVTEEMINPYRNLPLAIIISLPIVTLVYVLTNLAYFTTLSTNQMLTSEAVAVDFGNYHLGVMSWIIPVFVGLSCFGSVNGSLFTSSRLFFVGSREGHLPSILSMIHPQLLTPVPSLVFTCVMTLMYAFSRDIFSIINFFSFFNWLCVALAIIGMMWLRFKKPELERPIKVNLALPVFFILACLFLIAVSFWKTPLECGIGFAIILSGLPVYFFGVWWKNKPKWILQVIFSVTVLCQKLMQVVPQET", "test": "inhibition of [3H]L-tryptophan uptake in TR-BBB cells at […] ([…] of control)", "conditions": "read-out: Relative Uptake / (% of Control)"}, "[3]": {"molecular_target": "T2, LAT1 (L-type amino acid transporter 1)", "test": "competitive inhibition of [3H]L-tryptophan uptake in TR-BBB cells (Lineweaver-Burk)"}},
  "note": "Read-outs that look alike come from different tables or passages of the source.",
  "data": [
    {"compound": "N[C@@H](Cc1c[nH]c2ccccc12)C(=O)O", "note": "[L-tryptophan]", "values": [
      {"measurement": "Km", "setting": "[1]", "value": "33.1 ± 1.2", "unit": "µM"}
    ]},
    {"compound": "NC1(C(=O)O)CC2CCC1C2", "note": "(stereo not shown) [BCH]", "values": [
      {"measurement": "remaining activity at 2000 µM", "setting": "[2]", "value": "21 ± 1.3", "unit": "%"}
    ]},
    {"compound": "NCC(CC(=O)O)c1ccc(Cl)cc1", "note": "(stereo not shown) [Baclofen]", "values": [
      {"measurement": "Ki", "setting": "[3]; read-out: Ki", "value": 1620, "unit": "µM"}
    ]},
    {"compound": "NCC1(CC(=O)O)CCCCC1", "note": "[Gabapentin]", "values": [
      {"measurement": "Ki", "setting": "[3]", "value": 210, "unit": "µM"}
    ]}
  ]
}
